Experimental data published in patent US8192962B2, “Processes for detecting toxic substances” (Daikin Industries, Ltd., priority 2001, dated 2012).

Test system: Metabolism protein genes
Assay: DNA chip mRNA expression in yeast, metabolism protein genes (Table 7)
Format: cell-based, Saccharomyces cerevisiae S288C
Procedure, shortened: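 Expression change after 2 h toxicant exposure (growth-inhibiting, sub-lethal) of log-phase S. cerevisiae S288C at 25° C. Oligo-dT-purified mRNA was labeled with Cy3-dUTP or Cy5-dUTP and hybridized >12 h at 65° C. to a genome-wide chip; ratio of scanned fluorescence to control.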

Compound: COc1cc(CNC(=O)CCCCC=CC(C)C)ccc1O [(12), 8-methyl-N-vanillyl-6-nonenamide]
- level of expressed mRNA in the presence/in the absence of chemical substance (yeast gene YJR143C): 0.6
- The level of expressed mRNA in the presence of chemical substance/The level of expressed mRNA in the absence of chemical substance (yeast gene YJR148W): 0.8
- The level of expressed mRNA in the presence of chemical substance/The level of expressed mRNA in the absence of chemical substance (yeast gene YJR155W): 1.0
- The level of expressed mRNA in the presence of chemical substance/The level of expressed mRNA in the absence of chemical substance (yeast gene YKL035W): 1.0
- level of expressed mRNA in the presence/in the absence of chemical substance (yeast gene YKL060C): 1.3
- The level of expressed mRNA in the presence of chemical substance/The level of expressed mRNA in the absence of chemical substance (yeast gene YKL091C): 1.3
- The level of expressed mRNA in the presence of chemical substance/The level of expressed mRNA in the absence of chemical substance (yeast gene YKL104C): 1.6
- level of expressed mRNA in the presence/in the absence of chemical substance (yeast gene YKL148C): 0.8
- The level of expressed mRNA in the presence of chemical substance/The level of expressed mRNA in the absence of chemical substance (yeast gene YKL152C): 1.5
- level of expressed mRNA in the presence/in the absence of chemical substance (yeast gene YKL157W): 1.0
- The level of expressed mRNA in the presence of chemical substance/The level of expressed mRNA in the absence of chemical substance (yeast gene YKL213C): 0.9
- The level of expressed mRNA in the presence of chemical substance/The level of expressed mRNA in the absence of chemical substance (yeast gene YKL215C): 1.0
- level of expressed mRNA in the presence/in the absence of chemical substance (yeast gene YKR034W): 0.7
- The level of expressed mRNA in the presence of chemical substance/The level of expressed mRNA in the absence of chemical substance (yeast gene YKR039W): 1.5
- The level of expressed mRNA in the presence of chemical substance/The level of expressed mRNA in the absence of chemical substance (yeast gene YLL058W): 1.0
- level of expressed mRNA in the presence/in the absence of chemical substance (yeast gene YLR006C): 0.7
- level of expressed mRNA in the presence/in the absence of chemical substance (yeast gene YLR044C): 1.4
- level of expressed mRNA in the presence/in the absence of chemical substance (yeast gene YLR056W): 0.9
- level of expressed mRNA in the presence/in the absence of chemical substance (yeast gene YLR058C): 0.4
- level of expressed mRNA in the presence/in the absence of chemical substance (yeast gene YLR081W): 1.0
- level of expressed mRNA in the presence/in the absence of chemical substance (yeast gene YLR089C): 0.6
- The level of expressed mRNA in the presence of chemical substance/The level of expressed mRNA in the absence of chemical substance (yeast gene YLR180W): 0.6
- The level of expressed mRNA in the presence of chemical substance/The level of expressed mRNA in the absence of chemical substance (yeast gene YLR273C): 0.9
- level of expressed mRNA in the presence/in the absence of chemical substance (yeast gene YLR284C): 0.6
- The level of expressed mRNA in the presence of chemical substance/The level of expressed mRNA in the absence of chemical substance (yeast gene YLR299W): 1.0
- The level of expressed mRNA in the presence of chemical substance/The level of expressed mRNA in the absence of chemical substance (yeast gene YLR300W): 0.5
- level of expressed mRNA in the presence/in the absence of chemical substance (yeast gene YLR304C): 1.0
- The level of expressed mRNA in the presence of chemical substance/The level of expressed mRNA in the absence of chemical substance (yeast gene YLR307W): 0.7
- The level of expressed mRNA in the presence of chemical substance/The level of expressed mRNA in the absence of chemical substance (yeast gene YLR348C): 0.9
- level of expressed mRNA in the presence/in the absence of chemical substance (yeast gene YLR354C): 1.2
- level of expressed mRNA in the presence/in the absence of chemical substance (yeast gene YLR372W): 0.6
- level of expressed mRNA in the presence/in the absence of chemical substance (yeast gene YML022W): 0.6
- The level of expressed mRNA in the presence of chemical substance/The level of expressed mRNA in the absence of chemical substance (yeast gene YML054C): 1.8
- The level of expressed mRNA in the presence of chemical substance/The level of expressed mRNA in the absence of chemical substance (yeast gene YML070W): 1.3
- The level of expressed mRNA in the presence of chemical substance/The level of expressed mRNA in the absence of chemical substance (yeast gene YML100W): 1.2
- The level of expressed mRNA in the presence of chemical substance/The level of expressed mRNA in the absence of chemical substance (yeast gene YMR008C): 1.1
- level of expressed mRNA in the presence/in the absence of chemical substance (yeast gene YMR011W): 0.8
- level of expressed mRNA in the presence/in the absence of chemical substance (yeast gene YMR015C): 0.9
- The level of expressed mRNA in the presence of chemical substance/The level of expressed mRNA in the absence of chemical substance (yeast gene YMR020W): 1.1
- level of expressed mRNA in the presence/in the absence of chemical substance (yeast gene YMR083W): 0.7
- The level of expressed mRNA in the presence of chemical substance/The level of expressed mRNA in the absence of chemical substance (yeast gene YMR105C): 1.7
- The level of expressed mRNA in the presence of chemical substance/The level of expressed mRNA in the absence of chemical substance (yeast gene YMR189W): 0.6
- level of expressed mRNA in the presence/in the absence of chemical substance (yeast gene YMR205C): 1.1
- level of expressed mRNA in the presence/in the absence of chemical substance (yeast gene YMR261C): 0.9
- The level of expressed mRNA in the presence of chemical substance/The level of expressed mRNA in the absence of chemical substance (yeast gene YMR271C): 1.3
- The level of expressed mRNA in the presence of chemical substance/The level of expressed mRNA in the absence of chemical substance (yeast gene YMR296C): 0.8
- level of expressed mRNA in the presence/in the absence of chemical substance (yeast gene YMR323W): 1.2
- The level of expressed mRNA in the presence of chemical substance/The level of expressed mRNA in the absence of chemical substance (yeast gene YNL012W): 1.3
- level of expressed mRNA in the presence/in the absence of chemical substance (yeast gene YNL025C): 0.8
- The level of expressed mRNA in the presence of chemical substance/The level of expressed mRNA in the absence of chemical substance (yeast gene YNL045W): 0.9
- The level of expressed mRNA in the presence of chemical substance/The level of expressed mRNA in the absence of chemical substance (yeast gene YNL104C): 1.1
- The level of expressed mRNA in the presence of chemical substance/The level of expressed mRNA in the absence of chemical substance (yeast gene YNL106C): 0.8
- The level of expressed mRNA in the presence of chemical substance/The level of expressed mRNA in the absence of chemical substance (yeast gene YNL169C): 1.0
- level of expressed mRNA in the presence/in the absence of chemical substance (yeast gene YNL192W): 1.1
- The level of expressed mRNA in the presence of chemical substance/The level of expressed mRNA in the absence of chemical substance (yeast gene YNL231C): 1.8
- The level of expressed mRNA in the presence of chemical substance/The level of expressed mRNA in the absence of chemical substance (yeast gene YNL322C): 0.7
- The level of expressed mRNA in the presence of chemical substance/The level of expressed mRNA in the absence of chemical substance (yeast gene YNL331C): 0.9
- The level of expressed mRNA in the presence of chemical substance/The level of expressed mRNA in the absence of chemical substance (yeast gene YNL332W): 1.2
- The level of expressed mRNA in the presence of chemical substance/The level of expressed mRNA in the absence of chemical substance (yeast gene YNR019W): 1.0
- The level of expressed mRNA in the presence of chemical substance/The level of expressed mRNA in the absence of chemical substance (yeast gene YNR033W): 1.1
- The level of expressed mRNA in the presence of chemical substance/The level of expressed mRNA in the absence of chemical substance (yeast gene YNR059W): 0.8
- The level of expressed mRNA in the presence of chemical substance/The level of expressed mRNA in the absence of chemical substance (yeast gene YOL058W): 1.3
- level of expressed mRNA in the presence/in the absence of chemical substance (yeast gene YOL086C): 1.3
- level of expressed mRNA in the presence/in the absence of chemical substance (yeast gene YOL108C): 1.0
- level of expressed mRNA in the presence/in the absence of chemical substance (yeast gene YOL116W): 0.6
- The level of expressed mRNA in the presence of chemical substance/The level of expressed mRNA in the absence of chemical substance (yeast gene YOL126C): 1.1
- The level of expressed mRNA in the presence of chemical substance/The level of expressed mRNA in the absence of chemical substance (yeast gene YOL153C): 1.9
- level of expressed mRNA in the presence/in the absence of chemical substance (yeast gene YOL156W): 0.9
- The level of expressed mRNA in the presence of chemical substance/The level of expressed mRNA in the absence of chemical substance (yeast gene YOL165C): 0.8
- level of expressed mRNA in the presence/in the absence of chemical substance (yeast gene YOR002W): 0.5
- level of expressed mRNA in the presence/in the absence of chemical substance (yeast gene YOR085W): 0.8
- The level of expressed mRNA in the presence of chemical substance/The level of expressed mRNA in the absence of chemical substance (yeast gene YOR099W): 1.1
- level of expressed mRNA in the presence/in the absence of chemical substance (yeast gene YOR103C): 1.2
- level of expressed mRNA in the presence/in the absence of chemical substance (yeast gene YOR108W): 0.7
- level of expressed mRNA in the presence/in the absence of chemical substance (yeast gene YOR128C): 0.5
- The level of expressed mRNA in the presence of chemical substance/The level of expressed mRNA in the absence of chemical substance (yeast gene YOR130C): 0.9
- level of expressed mRNA in the presence/in the absence of chemical substance (yeast gene YOR142W): 0.8
- level of expressed mRNA in the presence/in the absence of chemical substance (yeast gene YOR176W): 1.3
- level of expressed mRNA in the presence/in the absence of chemical substance (yeast gene YOR178C): 1.7
- level of expressed mRNA in the presence/in the absence of chemical substance (yeast gene YOR251C): 0.9
- The level of expressed mRNA in the presence of chemical substance/The level of expressed mRNA in the absence of chemical substance (yeast gene YOR336W): 1.0
- The level of expressed mRNA in the presence of chemical substance/The level of expressed mRNA in the absence of chemical substance (yeast gene YOR347C): 1.2
- level of expressed mRNA in the presence/in the absence of chemical substance (yeast gene YOR348C): 0.7
- The level of expressed mRNA in the presence of chemical substance/The level of expressed mRNA in the absence of chemical substance (yeast gene YPL017C): 1.0
- level of expressed mRNA in the presence/in the absence of chemical substance (yeast gene YPL028W): 1.4
- level of expressed mRNA in the presence/in the absence of chemical substance (yeast gene YPL057C): 1.0
- level of expressed mRNA in the presence/in the absence of chemical substance (yeast gene YPL135W): 1.1
- level of expressed mRNA in the presence/in the absence of chemical substance (yeast gene YPL148C): 0.7
- The level of expressed mRNA in the presence of chemical substance/The level of expressed mRNA in the absence of chemical substance (yeast gene YPR026W): 1.2
- level of expressed mRNA in the presence/in the absence of chemical substance (yeast gene YPR113W): 0.7
- level of expressed mRNA in the presence/in the absence of chemical substance (yeast gene YPR165W): 0.8
- The level of expressed mRNA in the presence of chemical substance/The level of expressed mRNA in the absence of chemical substance (yeast gene YPR167C): 1.3
- level of expressed mRNA in the presence/in the absence of chemical substance (yeast gene YPR183W): 1.2
